Data: PMC6522510 (Nature Communications, 2019)
Read-outs that look alike come from different tables or passages of the source.

How the values were obtained:
Experiment in all cases: Secondary dose-response HTS, Cell Titer Glo; call rule not given here
Assay type in all cases: cell-based, human
ML2 = settings: ML-2
U937 = settings: for EC50: Homo sapiens, U-937
CMK = settings: CMK; for EC50: Homo sapiens
CHRF288-11 = settings: for EC50: Homo sapiens
M07e = settings: for EC50: Homo sapiens, M-07e
CMS = settings: for EC50: Homo sapiens, HTS
MV4-11 = settings: MV4-11; for EC50: Homo sapiens
MOLM-13 = settings: Homo sapiens; secondary high-throughput screen; MOLM-13; read-out: average effective concentration, MOLM-13
[1] = Homo sapiens, secondary high-throughput screen, read-out: average effective concentration, ML-2
[2] = secondary high-throughput screen, U937, read-out: average effective concentration, U937
[3] = HTS, secondary high-throughput screen, CHRF288-11, read-out: average effective concentration, CHRF288-11
[4] = secondary high-throughput screen, M07e, read-out: average effective concentration, M07e
[5] = secondary high-throughput screen, CMS, read-out: average effective concentration, CMS
[6] = secondary high-throughput screen
[7] = secondary high-throughput screen, U937
[8] = secondary high-throughput screen, CHRF288-11
[9] = secondary high-throughput screen, […]
[10] = secondary high-throughput screen, CMS
[11] = secondary high-throughput screen, M07e

| Compound | average effective concentration, ML-2 (ML2; [6]) | average effective concentration, U937 (U937; [7]) | average effective concentration, CMK (CMK; [6]) | average effective concentration, CHRF288-11 (CHRF288-11; [8]) | average effective concentration, MV4-11 (MV4-11; [6]) | average effective concentration, CMS (CMS; [10]) | average effective concentration, M07e (M07e; [11]) | also measured |
| --- | --- | --- | --- | --- | --- | --- | --- | --- |
| O=C(CCCCCN1C(=O)c2cccc3cccc(c23)C1=O)NO | – | – | – | – | – | – | – | EC50 (ML2; [1]): 4.1 µM; EC50 (U937; [2]): 680 nM; EC50 (CMK; secondary high-throughput screen, read-out: average effective concentration, CMK): 200 nM; EC50 (CHRF288-11; [3]): 1700 nM; EC50 (M07e; [4]): 330 nM; EC50 (CMS; [5]): 600 nM |
| C=C1C(=O)O[C@@H](CCC)[C@@H]1C(=O)O (racemic) [BUTYROLACTONE 3] | Inactive | Inactive | Inactive | Inactive | Inactive | Inactive | – | average effective concentration, M07e (M07e; [9]): Inactive |
| O=c1[nH]c2ccccc2c2ccccc12 [6(5H)-PHENANTHRIDINONE] | – | Inactive | Inactive | – | Inactive | Inactive | Inactive | – |
| Cc1noc(-c2ccc(-c3ccc(CC(=O)O)cc3)cc2)c1NC(=O)O[C@H](C)c1ccccc1Cl [AM-966] | Inactive | Inactive | Inactive | Inactive | Inactive | Inactive | Inactive | – |
| CC(C)(O)[C@@H]1CC[C@](C)([C@H]2[C@@H](O)C[C@@]3(C)[C@@H]4C[C@H](O[C@@H]5O[C@H](CO)[C@@H](O)[C@H](O)[C@H]5O)[C@H]5C(C)(C)[C@@H](O[C@@H]6OC[C@@H](O)[C@H](O)[C@H]6O)CC[C@@]56C[C@@]46CC[C@]23C)O1 [ASTRAGALOSIDE IV] | – | Inactive | Inactive | – | Inactive | Inactive | Inactive | – |
| C[C@H]1[C@H](OC(=O)CCC(=O)O)O[C@@H]2O[C@@]3(C)CC[C@H]4[C@H](C)CC[C@@H]1[C@@]24OO3 [Artesunate, reference compound] | – | – | – | – | – | – | – | EC50 (ML2; [1]): 4.6 µM; EC50 (U937; [2]): 1000 nM; EC50 (MOLM-13): 1300 nM; EC50 (CHRF288-11; [3]): 8600 nM; EC50 (M07e; [4]): 1200 nM; EC50 (CMS; [5]): 5900 nM |
| C/C(=C\C(=O)Nc1ccccc1C(=O)O)c1ccc2ccccc2c1 [BIBR-1532] | – | Inactive | Inactive | – | Inactive | Inactive | Inactive | – |
| CC(C)Oc1ccc(-c2cnc3c(-c4ccnc5ccccc45)cnn3c2)cc1 [DMH-1] | Inactive | Inactive | Inactive | Inactive | Inactive | Inactive | Inactive | – |
| O=C1NCCc2c(OCCCCN3CCCCC3)cccc21 [DPQ] | Inactive | Inactive | Inactive | Inactive | Inactive | Inactive | Inactive | – |
| COC(=O)[C@H](CC(C)C)NC(=O)c1ccc(NCc2cnc[nH]2)cc1-c1cccc2ccccc12 [GGTI-2147] | Inactive | Inactive | Inactive | Inactive | Inactive | Inactive | Inactive | – |
| O=C(CCCCCCSc1ccc2ccccc2c1)NO [HNHA] | – | Inactive | Inactive | – | Inactive | Inactive | Inactive | EC50 (ML2; secondary high-throughput screen, read-out: average effective concentration, ML-2): 8.5 µM |
| O=C(c1ccc(Cl)cc1Cl)n1nnc2ccccc21 [ITSA1] | – | Inactive | Inactive | – | Inactive | Inactive | Inactive | – |
| Nc1ncnc2c1ncn2[C@@H]1C=C(CO)[C@@H](O)[C@H]1O [NEPLANOCIN A] | – | – | – | – | Inactive | Inactive | – | average effective concentration, M07e (M07e; [9]): Inactive |
| COc1ccc(-c2ccc3ncc4c(c3c2)n(-c2ccc(N3CCNCC3)c(C(F)(F)F)c2)c(=O)n4C)cn1 [NVP-BGT226, reference compound] | – | – | – | – | – | – | – | EC50 (ML2; Homo sapiens, secondary HTS, 72 h, average of triplicate, read-out: EC50 ML2): 0.23 µM; EC50 (ML2; [1]): 0.23 µM; EC50 (U937; secondary HTS, 72 h, average of triplicate, read-out: EC50 U937): 80 nM; EC50 (U937; [2]): 80 nM; EC50 (CMK; 72 h, read-out: EC50 CMK): 60 nM; EC50 (CMK; read-out: average effective concentration, CMK): 63 nM; EC50 (CHRF288-11; [3]): 55 nM; EC50 (CHRF288-11; secondary HTS, 72 h, average of triplicate, read-out: EC50 CHRF288-11): 50 nM; EC50 (M07e; secondary HTS, 72 h, average of triplicate, read-out: EC50 M07e): 250 nM; EC50 (M07e; [4]): 250 nM; EC50 (MV4-11; secondary HTS, 72 h, average of triplicate, read-out: EC50 MV4-11): 50 nM; EC50 (MV4-11; secondary high-throughput screen, read-out: average effective concentration, MV4-11): 50 nM; EC50 (CMS; 72 h, read-out: EC50 CMS): 10 nM; EC50 (CMS; read-out: average effective concentration, CMS): 14 nM |
| Cc1c(-c2cnccn2)ssc1=S [OLTIPRAZ] | – | – | – | – | – | – | – | EC50 (ML2; [1]): 3.1 µM; EC50 (U937; [2]): 5800 nM; EC50 (MOLM-13): > 10000 nM; EC50 (CHRF288-11; [3]): > 10000 nM; EC50 (M07e; [4]): > 10000 nM; EC50 (CMS; [5]): 10000 nM |
| NC(=O)c1cccc2ncc(-c3ccc(Cl)cc3)nc12 [PARP INHIBITOR XII] | Inactive | Inactive | Inactive | Inactive | Inactive | Inactive | Inactive | – |
| O=C(CCN1CCN(C(=O)OCc2cc(Cl)cc(Cl)c2)CC1)c1ccc2[nH]c(=O)oc2c1 [PF-8380] | Inactive | Inactive | Inactive | Inactive | Inactive | Inactive | Inactive | – |
| CN(C)CC(=O)Nc1ccc2[nH]c(=O)c3ccccc3c2c1 [PJ34] | Inactive | Inactive | Inactive | Inactive | Inactive | Inactive | Inactive | – |
| O=C(O)C(Cc1c[nH]c2ccccc12)N1C(=O)c2ccccc2C1=O (stereo not shown) [RG108] | Inactive | Inactive | Inactive | Inactive | Inactive | Inactive | Inactive | – |
